Laboratory results taken from US20230357232A1, “IMIDAZO[1,2-A]PYRIDINE COMPOUND AND PEST CONTROL AGENT” (Nippon Soda Co., Ltd., priority 2020, published 2023).

Legend:
[1] = tested on: Plutella xylostella; experiment: Test of efficacy on Plutella xylostella (cabbage leaf dip); format: in vivo; settings: foliar, 72 h, cabbage leaves dipped 30 seconds, second instar larvae, after 3 days, 25° C., read-out: insecticidal rate
Experimental: (§1) 5 parts of the imidazo[1,2-a]pyridine compound of the present invention, 93.6 parts of dimethylformamide, and 1.4 parts of polyoxyethylene alkyl aryl ether were mixed and dissolved to prepare emulsion (I) containing 5% of the active ingredient.
(§2) An insecticidal rate was calculated according to the following expression: […]
The emulsion (I) was diluted with water such that the concentration of the compound of the present invention was 125 ppm. Cabbage leaves were dipped in the dilution for 30 seconds. The resulting cabbage leaves were placed in a petri dish. Five second instar larvae of Plutella xylostella were released thereto. The petri dish was placed in a thermostat chamber having a temperature of 25° C. and a humidity of 60%. Life and death were determined after 3 days from the release of the insects, and the insecticidal rate was calculated. The test was conducted in duplicate.

[2] = tested on: Phyllotreta striolata; experiment: Test of efficacy on Phyllotreta striolata (spray on Qing geng cai seedlings); format: in vivo; settings: 168 h, 125 ppm sprayed to Qing geng cai seedlings, adults, after 7 days, 25° C., read-out: insecticidal rate
Experimental: as §1, §2
The emulsion (I) was diluted with water such that the concentration of the compound of the present invention was 125 ppm to prepare a test chemical. The test chemical was sprayed to Qing geng cai seedlings (at the seventh true leaf stage) planted in 10-cm pots. The Qing geng cai seedlings were dried in air and then placed in a plastic cup. Ten Phyllotreta striolata adults were released thereto. The plastic cup was stored in a thermostat chamber having a temperature of 25° C. and a humidity of 65%. Life and death were determined after 7 days from the release of the insects, and the insecticidal rate was calculated. The test was conducted in duplicate.

melting point [°C]	Structure (SMILES)	pest or weed control at 125 ppm [1] [%]	pest or weed control at 125 ppm [2] [%]
	CCS(=O)(=O)c1c(-c2ncc(-c3ccc(OC(F)(F)F)cc3)n2C)nc2cc(C(F)(F)F)ccn12 [a-10]	≥ 80	≥ 80
	CCS(=O)(=O)c1c(-c2ncc(-c3ccc(C(F)(F)F)nc3)n2C)nc2ccc(C(F)(F)F)cn12 [a-2]	≥ 80	≥ 80
	CCS(=O)(=O)c1c(-c2ncc(-c3ccc(OC(F)(F)F)cc3)n2C)nc2ccc(C(F)(F)F)cn12 [a-3, 3-(ethylsulfonyl)-2-(1-methyl-5-(4-(trifluoromethoxy)phenyl)-1H-imidazol-2-yl)-6-(trifluoromethyl)imidazo[1,2-a]pyridine]	≥ 80	≥ 80
	CCS(=O)(=O)c1c(-c2ncc(/C=C(/F)C(F)(F)C(F)(F)F)n2C)nc2ccc(C(F)(F)F)cn12 [a-16]		≥ 80
	CCS(=O)(=O)c1c(-c2ncc(/C=C/C(F)(F)C(F)(F)F)n2C)nc2ccc(C(F)(F)F)cn12 [a-13]	≥ 80	≥ 80
	CCS(=O)(=O)c1c(-c2ncn(-c3ccc(OC(F)(F)F)cc3)n2)nc2ccc(C(F)(F)F)cn12 [a-6]	≥ 80	≥ 80
236 to 238	CCS(=O)(=O)c1c(-c2ncc(C=C(Cl)Cl)n2C)nc2ccc(C(F)(F)F)cn12 [a-15]		
	CCS(=O)(=O)c1c(-c2ncc(-c3ccc(OC(F)(F)C(F)F)cc3)n2C)nc2ccc(C(F)(F)F)cn12 [a-1]	≥ 80	
	CCS(=O)(=O)c1c(-c2ncc(/C=C(\Cl)C(F)(F)F)n2C)nc2cc(C(F)(F)F)ccn12 [a-24]	≥ 80	
	CCS(=O)(=O)c1c(-c2ncc(C=C(Cl)C(F)(F)F)n2C)nc2ccc(Cl)cn12 [a-23]	≥ 80	≥ 80
	CCS(=O)(=O)c1c(-c2ncc(/C=C(\F)C(F)(F)C(F)(F)F)n2C)nc2ccc(C(F)(F)F)cn12 [a-17]	≥ 80	≥ 80
	CCS(=O)(=O)c1c(-c2cn(CC(F)(F)C(F)(F)C(F)(F)F)cn2)nc2ccc(C(F)(F)F)cn12 [a-12]	≥ 80	≥ 80
	CCS(=O)(=O)c1c(-c2cn(/C=C(\F)C(F)(F)C(F)(F)F)cn2)nc2ccc(C(F)(F)F)cn12 [a-11]	≥ 80	≥ 80
	CCS(=O)(=O)c1c(-c2ncc(C=C(Cl)C(F)(F)F)n2C)nc2cc(Cl)ccn12 [a-22]	≥ 80	≥ 80
	CCS(=O)(=O)c1c(-c2ncc(C=C(Cl)C(F)(F)F)n2C)nc2cc(C3CC3)ccn12 [a-21]	≥ 80	≥ 80
	CCS(=O)(=O)c1c(-c2ncc(-c3ccc(OC(F)(F)F)c(Cl)c3)n2C)nc2ccc(C(F)(F)F)cn12 [a-7]	≥ 80	≥ 80
	CCS(=O)(=O)c1c(-c2cn(-c3ccc(OC(F)(F)F)cc3)cn2)nc2ccc(C(F)(F)F)cn12 [a-5]	≥ 80	≥ 80
	CCS(=O)(=O)c1c(-c2ncc(C(F)C(F)(C(F)(F)F)C(F)(F)F)n2C)nc2ccc(C(F)(F)F)cn12 (centres unmarked) [a-4]	≥ 80	
	CCS(=O)(=O)c1c(-c2ncc(C=C(F)C(F)(F)C(F)(F)F)n2C)nc2ccc(C(F)(F)F)cn12 [a-20]	≥ 80	≥ 80
	CCS(=O)(=O)c1c(-n2cc(-c3ccc(OC(F)(F)F)cc3)cn2)nc2ccc(C(F)(F)F)cn12 [a-9]	≥ 80	
233 to 235	CCS(=O)(=O)c1c(-c2ncc(C=C(Br)Br)n2C)nc2ccc(C(F)(F)F)cn12 [a-14]		
	CCS(=O)(=O)c1c(-c2ncc(-c3ccc(C(F)(F)F)c(Cl)c3)n2C)nc2ccc(C(F)(F)F)cn12 [a-8]	≥ 80	
	CCS(=O)(=O)c1c(-c2ncc(C=C(F)C(F)(F)C(F)(F)F)n2C)nc2cc(C(F)(F)F)ccn12 [a-19]	≥ 80	≥ 80
